Reference: US8771665B2 (Cocrystal Discovery, Inc., priority 2010, dated 2014)
Counter-ions that a name gives are not always drawn.

target: T1, HCV1b NS5B polymerase delta 21 (Hepatitis C virus genotype 1b, UniProt P26663); assay: RNA-Dependent RNA HCV NS5B (Polymerase) Assay and IC50 Determination; assay type: biochemical
T1 construct: purified HCV1b NS5B polymerase delta 21
Experimental: RNA-Dependent RNA HCV NS5B (Polymerase) Assay and IC50 Determination
In vitro RNA-dependent RNA polymerase activity was determined in a reaction mixture (50 μL) containing 50 mM Tris-HCl, pH 7.5, 5 mM MgCl2, 1 mM dithiothreitol, 0.5% Triton® X-100, 10 μM of UTP, 0.1-0.5 μCi of α-^32P UTP (Perkin Elmer Life Sciences), 1 μg of polyA:U16 (Midland Oligo), and 0.6 μg of purified HCV1b NS5B polymerase delta 21. Different concentrations of compounds were added to the reaction mixtures. The reaction was carried out at RT (23° C.) for 60 min and then stopped by the addition of 100 μL of 50 mM EDTA. The reaction mixtures were filtered through either a DE81 membrane or a positively charged nylon membrane, and the membranes were then extensively washed with 30 mM sodium citrate, pH 7.0 and 300 mM NaCl. The radiolabeled RNA products were quantitated using a Storm™ Phosphorlmager™ (GE Life Sciences). IC50 values were calculated using GraFit 6 and GraphPad Prism 5 from triplicate assays.

T1 sequence (P26663 2420-2989): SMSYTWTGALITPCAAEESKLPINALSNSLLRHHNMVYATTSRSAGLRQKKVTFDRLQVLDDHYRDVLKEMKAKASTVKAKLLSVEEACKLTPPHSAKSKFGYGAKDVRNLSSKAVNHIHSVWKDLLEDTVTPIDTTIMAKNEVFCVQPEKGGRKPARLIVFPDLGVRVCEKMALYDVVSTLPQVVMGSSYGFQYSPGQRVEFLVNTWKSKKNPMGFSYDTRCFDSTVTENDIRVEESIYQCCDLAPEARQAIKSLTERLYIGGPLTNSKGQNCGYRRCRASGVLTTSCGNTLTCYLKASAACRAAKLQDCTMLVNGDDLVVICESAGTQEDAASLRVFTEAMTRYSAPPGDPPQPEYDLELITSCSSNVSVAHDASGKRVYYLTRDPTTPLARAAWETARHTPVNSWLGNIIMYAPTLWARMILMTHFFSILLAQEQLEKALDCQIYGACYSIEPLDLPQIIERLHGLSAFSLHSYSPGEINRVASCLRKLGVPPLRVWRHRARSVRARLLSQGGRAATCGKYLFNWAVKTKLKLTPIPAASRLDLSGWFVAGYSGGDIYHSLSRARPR

| Structure (SMILES) | IC50 [µM] |
| --- | --- |
| CC1CCC(C2=C(c3cc(-c4cc(F)c(NC(=O)c5cscn5)cc4F)sc3C(=O)O)CCN(C)C2)CC1 (stereo not shown) [Example 160, 5-{2,5-Difluoro-4-[(thiazole-4-carbonyl)-amino]-phenyl}-3-[1-methyl-5-(4-methyl-cyclohexyl)-1,2,3,6-tetrahydro-pyridin-4-yl]-thiophene-2-carboxylic acid] | < 3 |
| CC1CCC(C2=C(c3cc(-c4ccccc4)sc3C(=O)O)CCN(CCc3ccccc3)C2)CC1 (stereo not shown) [Example 078, 3-[5-(4-Methyl-cyclohexyl)-1-phenethyl-1,2,3,6-tetrahydro-pyridin-4-yl]-5-phenyl-thiophene-2-carboxylic acid] | > 10 |
| CCN1CCC(c2cc(C#CC3CCCC3)sc2C(=O)O)=C(C2CCC(C)CC2)C1 (stereo not shown) [Example 031, 5-Cyclopentylethynyl-3-[1-ethyl-5-(4-methyl-cyclohexyl)-1,2,3,6-tetrahydro-pyridin-4-yl]-thiophene-2-carboxylic acid] | 3 to 10 |
| CC1CCC(C2=C(c3cc(-c4ccccc4)sc3C(=O)O)CCN(Cc3ccncc3)C2)CC1 (stereo not shown) [Example 090, 3-[5-(4-Methyl-cyclohexyl)-1-pyridin-4-ylmethyl-1,2,3,6-tetrahydro-pyridin-4-yl]-5-phenyl-thiophene-2-carboxylic acid] | < 3 |
| CC1CCC(C2=C(c3cc(-c4ccccc4)sc3C(=O)O)CCN(Cc3cn(C)c4ccccc34)C2)CC1 (stereo not shown) [Example 095, 3-[5-(4-Methyl-cyclohexyl)-1-(1-methyl-1H-indol-3-ylmethyl)-1,2,3,6-tetrahydro-pyridin-4-yl]-5-phenyl-thiophene-2-carboxylic acid] | 3 to 10 |
| CC1CCC(C2=C(c3cc(-c4ccccc4)sc3C(=O)O)CCN(C(=O)c3nccnc3N)C2)CC1 (stereo not shown) [Example 155, 3-[1-(3-Amino-pyrazine-2-carbonyl)-5-(4-methyl-cyclohexyl)-1,2,3,6-tetrahydro-pyridin-4-yl]-5-phenyl-thiophene-2-carboxylic acid] | > 10 |
| CCN1CCC(c2cc(-c3ccc(NC(=O)c4cscn4)cc3)sc2C(=O)O)=C(C2CCC(C)CC2)C1 (stereo not shown) [Example 019, 3-[1-Ethyl-5-(4-methyl-cyclohexyl)-1,2,3,6-tetrahydro-pyridin-4-yl]-5-{4-[(thiazole-4-carbonyl)-amino]-phenyl}-thiophene-2-carboxylic acid] | < 3 |
| CC1CCC(C2=C(c3cc(-c4ccccc4)sc3C(=O)O)CCN(C(=O)c3cn(C)c4ccccc34)C2)CC1 (stereo not shown) [Example 098, 3-[5-(4-Methyl-cyclohexyl)-1-(1-methyl-1H-indole-3-carbonyl)-1,2,3,6-tetrahydro-pyridin-4-yl]-5-phenyl-thiophene-2-carboxylic acid] | > 10 |
| CC1CCC(C2=C(c3cc(-c4ccccc4)sc3C(=O)O)CCN(C(=O)Cc3ccc4ccccc4c3)C2)CC1 (stereo not shown) [Example 096, 3-[5-(4-Methyl-cyclohexyl)-1-(2-naphthalen-2-yl-acetyl)-1,2,3,6-tetrahydro-pyridin-4-yl]-5-phenyl-thiophene-2-carboxylic acid] | > 10 |
| CCCC(=O)N1CCC(c2cc(-c3ccccc3)sc2C(=O)O)=C(C2CCC(C)CC2)C1 (stereo not shown) [Example 077, 3-[1-Butyryl-5-(4-methyl-cyclohexyl)-1,2,3,6-tetrahydro-pyridin-4-yl]-5-phenyl-thiophene-2-carboxylic acid] | 3 to 10 |
| CC1CCC(C2=C(c3cc(-c4ccccc4)sc3C(=O)O)CCN(Cc3ccnc(-c4ccc(F)cc4)c3)C2)CC1 (stereo not shown) [Example 147, 3-[1-[2-(4-Fluoro-phenyl)-pyridin-4-ylmethyl]-5-(4-methyl-cyclohexyl)-1,2,3,6-tetrahydro-pyridin-4-yl]-5-phenyl-thiophene-2-carboxylic acid] | > 10 |
| CCN1CCC(c2cc(C#CCOC)sc2C(=O)O)=C(C2CCC(C)CC2)C1 (stereo not shown) [Example 034, 3-[1-Ethyl-5-(4-methyl-cyclohexyl)-1,2,3,6-tetrahydro-pyridin-4-yl]-5-(3-methoxy-prop-1-ynyl)-thiophene-2-carboxylic acid] | < 3 |
| CCCC(C)C#Cc1cc(C2=C(C3CCC(C)CC3)CN(CC)CC2)c(C(=O)O)s1 (stereo not shown) [Example 030, 3-[1-Ethyl-5-(4-methyl-cyclohexyl)-1,2,3,6-tetrahydro-pyridin-4-yl]-5-(3-methyl-hex-1-ynyl)-thiophene-2-carboxylic acid] | > 10 |
| CCN1CCC(c2cc(-c3ccc(NC(=O)c4cc(C)on4)cc3)sc2C(=O)O)=C(C2CCC(C)CC2)C1 (stereo not shown) [Example 053, 3-[1-Ethyl-5-(4-methyl-cyclohexyl)-1,2,3,6-tetrahydro-pyridin-4-yl]-5-{4-[(5-methyl-isoxazole-3-carbonyl)-amino]-phenyl}-thiophene-2-carboxylic acid] | 3 to 10 |
| CC1CCC(C2=C(c3cc(-c4ccc(C#Cc5cscn5)cc4)sc3C(=O)O)CCN(C)C2)CC1 (stereo not shown) [Example 129, 3-[1-Methyl-5-(4-methyl-cyclohexyl)-1,2,3,6-tetrahydro-pyridin-4-yl]-5-(4-thiazol-4-ylethynyl-phenyl)-thiophene-2-carboxylic acid, hydrochloride salt] | < 3 |
| CC1CCC(C2=C(c3cc(I)sc3C(=O)O)CCN(C)C2)CC1 (stereo not shown) [Example 002, 5-Iodo-3-[1-methyl-5-(4-methyl-cyclohexyl)-1,2,3,6-tetrahydro-pyridin-4-yl]-thiophene-2-carboxylic acid] | > 10 |
| CCNC(=O)N1CCC(c2cc(-c3ccccc3)sc2C(=O)O)=C(C2CCC(C)CC2)C1 (stereo not shown) [Example 085, 3-[1-Ethylcarbamoyl-5-(4-methyl-cyclohexyl)-1,2,3,6-tetrahydro-pyridin-4-yl]-5-phenyl-thiophene-2-carboxylic acid] | 3 to 10 |
| CC1CCC(C2=C(c3cc(-c4ccccc4)sc3C(=O)O)CCNC2)CC1 (stereo not shown) [Example 040, 3-[5-(4-Methyl-cyclohexyl)-1,2,3,6-tetrahydro-pyridin-4-yl]-5-phenyl-thiophene-2-carboxylic acid] | < 3 |
| CCN1CCC(c2cc(-c3ccc(NC(=O)c4cn(C)cn4)cc3)sc2C(=O)O)=C(C2CCC(C)CC2)C1 (stereo not shown) [Example 057, 3-[1-Ethyl-5-(4-methyl-cyclohexyl)-1,2,3,6-tetrahydro-pyridin-4-yl]-5-{4-[(1-methyl-1H-imidazole-4-carbonyl)-amino]-phenyl}-thiophene-2-carboxylic acid] | < 3 |
| CCN1CCC(c2cc(-c3ccc(C(=O)Nc4ccccn4)cc3)sc2C(=O)O)=C(C2CCC(C)CC2)C1 (stereo not shown) [Example 062, 3-[1-Ethyl-5-(4-methyl-cyclohexyl)-1,2,3,6-tetrahydro-pyridin-4-yl]-5-[4-(pyridin-2-ylcarbamoyl)-phenyl]-thiophene-2-carboxylic acid] | < 3 |
| CC1CCC(C2=C(c3cc(-c4ccccc4)sc3C(=O)O)CCN(Cc3ccc(Br)cn3)C2)CC1 (stereo not shown) [Example 149, 3-[1-(5-Bromo-pyridin-2-ylmethyl)-5-(4-methyl-cyclohexyl)-1,2,3,6-tetrahydro-pyridin-4-yl]-5-phenyl-thiophene-2-carboxylic acid] | 3 to 10 |
| CC1CCC(C2=C(c3cc(C#CC(C)(C)C)sc3C(=O)O)CN(CCCO)CC2)CC1 (stereo not shown) [Example 114, 5-(3,3-Dimethyl-but-1-ynyl)-3-[1-(3-hydroxy-propyl)-4-(4-methyl-cyclohexyl)-1,2,5,6-tetrahydro-pyridin-3-yl]-thiophene-2-carboxylic acid] | < 3 |
